From patent publication US20150004148A1, “METHODS AND COMPOSITIONS FOR INCREASING RNA INTERFERENCE” (DEVGEN N.V., priority 2008, published 2015) come the findings set out here.

Format in all cases: in vivo
The test system of data set [1] is Colorado potato beetle (Leptinotarsa decemlineata) larvae. Briefly: Colorado potato beetle (CPB) larvae bioassay on artificial diet, test solution applied topically to the diet. As for the experimental part: The bioassay was typically performed in an 48-well-plate containing 500 μl of artificial diet per well. Thirty μl of test solution consisting of 5 μl Ld105 (SEQ ID NO 1) dsRNA (starting concentration 10 ng/μl) and 25 μl of dextran sulfate (of varying concentrations in Milli-Q water) was applied topically to the diet and the diet left to dry for about two hours in the laminar flow at room temperature. One 2nd stage CPB larva was placed in each well. Per treatment, 24 insects were tested. The plates were incubated in the insect rearing chamber at 25° C. and ±50% RH, with a photoperiod of 16 hours light/8 hours dark. Mortality was scored over the course of the experiment. The Kaplan-Meier estimator was used to plot the survival curves and the survival curves were compared using the logrank χ^2 test.
In a CPB bioassay (set-up described in Example 1), target Ld105 dsRNA (SEQ ID NO:1) was tested at one quantity (50 ng) in the presence of fucoidan (average Mw±20 kDa; Sigma cat. no. F5631) at different amounts ranging from 50 ng to 50 μg per larva.
In a CPB bioassay (set-up described in Example 1), target Ld105 dsRNA (SEQ ID NO:1) was tested at different amounts ranging from 1 pg to 1 μg in the presence of 50 μg dextran sulfate per larva.
In a CPB bioassay (set-up described in Example 1), target Ld105 dsRNA (SEQ ID NO:1) was tested at one quantity (50 ng) in the presence of heparin (MP Biomedicals cat. no. 194114) at different amounts ranging from 50 ng to 50 μg per larva.
In a CPB bioassay (set-up described in Example 1), target Ld105 dsRNA (SEQ ID NO:1) was tested at one quantity (50 ng per larva) in the presence of 50 μg chondroitin sulfate (Sigma cat. no. C3788) or hyaluronic acid (Sigma cat. no. 53747).
Preparation of the recombinant bacteria is described in the international publication WO 2007/080127 (see pages 55-56).
In one CPB bioassay (set-up described in Example 1), different target dsRNAs (SEQ ID NO:1, 2, 3, 4; Ld105 dsRNA=SEQ ID NO:1, Ld013=SEQ ID NO: 2, Ld009=SEQ ID NO: 3 and Ld248=SEQ ID NO: 4) were tested at one quantity (100 ng) in the presence of dextran sulfate (50 μg).

The test system is the same in data set [2]. The data set is described as follows: CPB sequential feeding assay (priming with dextran sulfate, then dsRNA) on artificial diet. The conditions noted are these: Example 11; DS/DS treatment, 50 μg dextran sulfate. As for the experimental part:
In one CPB bioassay, target Ld105 dsRNA (SEQ ID NO:1) was tested at one quantity (1 μg) following a short exposure to dextran sulfate only. The bioassay set-up was similar to that described in Example 1, except that the larvae were first fed diet with topically applied dextran sulfate (DS; 50 μg), or water, for two full days before transferring them to fresh diet with topically applied Ld105 dsRNA, dextran sulfate or water only, for the remainder of the assay.

Data set [3] deals with nematode Caenorhabditis elegans. Briefly: C. elegans soaking assay, counting of life stages. The note with it: Example 13. The procedure: The effects of dextran sulfate on the RNAi-induced phenotypes of a non-insect species, namely, the nematode Caenorhabditis elegans, were tested in a soaking assay. Wild-type worms were chunked from a stock plate and adults were bleached to obtain a well-staged population. The assay was set up in a V-shaped 96-well plate, with each well containing 20 μl of solution comprising 50 ng/μl target rps-14 dsRNA (SEQ ID NO:6), various concentrations of dextran sulfate (0 mg/ml, 0.25 mg/ml, 0.50 mg/ml and 1 mg/ml) and 50 first-larval stage nematodes. Each treatment was performed in triplicate. The plate containing the worms was incubated at 25° C. for overnight soaking After 17 hours, the worms were transferred to 3.5 cm agar-plates seeded with OP50 E. coli and incubated at 20° C. for a further 2 days. After this growing period, the assay was assessed by counting the different life stages for all treatments.

For data set [4], the system named is Colorado potato beetle (Leptinotarsa decemlineata) larvae. The data set is described as follows: Alternative CPB bioassay using treated potato leaf discs. The conditions noted are these: Example 10; 50 μg dextran sulfate alone on leaf discs.
Protocol: An alternative bioassay was used using potato leaf discs rather than artificial diet as food source for CPB. Discs of approximately 0.9 cm in diameter (or 0.64 cm^2) were cut out off leaves of 4- to 6-week-old potato plants using a suitably sized cork borer. Treated leaf discs were prepared by applying 2 μl of a solution comprising 100 ng target Ld105 dsRNA (SEQ ID NO:1) and 50 μg dextran sulfate on the adaxial leaf surface. The leaf discs were allowed to dry and placed individually in 24 wells of a 48-well multiwell plate. A single second-larval stage CPB was placed into each well and the plate covered with a plastic lid. Twenty-four larvae were tested per treatment. […] After 24 hours, the larvae were transferred to fresh, untreated leaf discs and placed in the chamber for a further 24 hours. This was repeated once after which the CPB larvae were transferred on to artificial diet where they were kept until the end of the bioassay.
Setting [5] is: Example 6, heparin or dextran sulfate alone, no dsRNA.
Where [6] appears, read: 50 ng/μl rps-14 dsRNA, alone or plus 1 mg/ml dextran sulfate, 17 hours soaking, then 2 days growing.

Consider “dextran sulfate [dextran sulfate (±8 kDa)]”, for which the toxicity to larvae result in data set [1] (Example 1, dextran sulfate (±8 kDa) alone, 50 ng to 50 μg per larva, no dsRNA) is “Very little or no toxicity”; in data set [1] (Example 4, 50 μg dextran sulfate (±8 kDa) alone) it was “Very little or no toxicity”; in data set [1] (setting [5]), “Very little or no toxicity”; in data set [2], “Very little or no toxicity”; in data set [4] it was “Very little toxicity”. The toxicity to nematodes entry in data set [3] (dextran sulfate alone (data not shown)) is listed as “No toxicity”.
For “dextran sulfate [dextran sulfate (±1400 kDa)]”, the toxicity to larvae result in data set [1] (Example 5, dextran sulfate (±1400 kDa) alone, 50 ng to 50 μg per larva) is “Very little or no toxicity”.
On to fucoidan, for which the toxicity to larvae result in data set [1] (Example 2, fucoidan alone, 50 ng to 50 μg per larva) is given as “Very little or no toxicity”.
For the substance heparin [reference compound], the toxicity to larvae entry in data set [1] (setting [5]) was “Very little or no toxicity”.
As for “rps-14 dsRNA: C. elegans target rps-14 double-stranded RNA, SEQ ID NO:6”, in data set [3] (setting [6]), the “number of L3 stage larvae” value was 11%, the “number of L4 stage larvae” value was 19%, the number of adults is 63% and the “number of dead larvae” value worked out at 7%.
